{"source": "ChEMBL document CHEMBL5365526", "about": "(J Med Chem, 2023)", "key": {"[1]": {"target": "von Hippel-Lindau disease tumor suppressor/Mitogen-activated protein kinase 7 (Homo sapiens, UniProt Q13164+P40337)", "sequence (P40337 whole entry partner)": "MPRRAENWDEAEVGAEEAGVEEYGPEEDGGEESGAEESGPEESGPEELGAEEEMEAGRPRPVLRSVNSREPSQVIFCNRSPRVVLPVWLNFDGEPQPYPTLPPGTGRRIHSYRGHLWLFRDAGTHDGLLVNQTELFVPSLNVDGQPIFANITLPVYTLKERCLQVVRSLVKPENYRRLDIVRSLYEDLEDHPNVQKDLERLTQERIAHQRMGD", "sequence (Q13164 2-816 limits assumed)": "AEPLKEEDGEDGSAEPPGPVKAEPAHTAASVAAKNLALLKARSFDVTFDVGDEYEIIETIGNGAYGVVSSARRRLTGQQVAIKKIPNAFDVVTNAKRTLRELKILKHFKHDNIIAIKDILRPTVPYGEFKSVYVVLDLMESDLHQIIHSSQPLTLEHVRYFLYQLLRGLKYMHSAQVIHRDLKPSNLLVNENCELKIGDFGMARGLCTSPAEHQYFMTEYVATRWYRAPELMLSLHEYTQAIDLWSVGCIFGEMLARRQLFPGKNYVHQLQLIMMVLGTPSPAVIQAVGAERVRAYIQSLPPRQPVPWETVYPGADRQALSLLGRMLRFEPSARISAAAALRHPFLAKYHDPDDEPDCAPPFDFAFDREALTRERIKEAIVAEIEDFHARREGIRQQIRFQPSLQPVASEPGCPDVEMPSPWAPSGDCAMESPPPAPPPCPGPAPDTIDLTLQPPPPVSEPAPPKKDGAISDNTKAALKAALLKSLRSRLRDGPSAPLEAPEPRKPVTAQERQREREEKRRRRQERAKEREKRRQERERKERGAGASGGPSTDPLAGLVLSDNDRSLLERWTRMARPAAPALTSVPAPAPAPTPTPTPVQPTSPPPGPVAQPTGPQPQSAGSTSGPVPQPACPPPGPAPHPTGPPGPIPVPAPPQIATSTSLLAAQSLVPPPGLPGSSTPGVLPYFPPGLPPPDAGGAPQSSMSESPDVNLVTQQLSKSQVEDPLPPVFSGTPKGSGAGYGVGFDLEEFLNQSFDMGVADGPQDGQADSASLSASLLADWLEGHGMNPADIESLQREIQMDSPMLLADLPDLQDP", "experiment": "PROTAC activity at VHL/ERK5 in human A-375 cells assessed as induction of ERK5 degradation at 100 nM incubated for 24 hrs by western blot analysis", "assay_type": "cell-based"}, "[2]": {"tested_on": "A-375", "experiment": "Inhibition of cell colony formation in human A-375 cells at 5 uM cultured in 8% FBS and measured after 7 days in presence of LPS by crystal violet staining based analysis", "assay_type": "functional", "settings": "time 7.0 day"}, "[3]": {"tested_on": "HCT-116", "experiment": "Inhibition of cell colony formation in human HCT-116 cells at 5 uM cultured in 8% FBS and measured after 7 days in presence of LPS by crystal violet staining based analysis", "assay_type": "functional", "settings": "time 7.0 day"}, "[4]": {"experiment": "Inhibition of M2 macrophage development in PMA-differentiated human THP-1 cells assessed as CD206 surface expression at 5 uM incubated for 48 hrs by flow cytometry (reference value: 53.4%)", "assay_type": "functional", "parameters": "scale not given: the % may be the effect or the level left"}, "[5]": {"target": "Mitogen-activated protein kinase 7 (Homo sapiens, UniProt Q13164)", "sequence (Q13164 whole entry)": "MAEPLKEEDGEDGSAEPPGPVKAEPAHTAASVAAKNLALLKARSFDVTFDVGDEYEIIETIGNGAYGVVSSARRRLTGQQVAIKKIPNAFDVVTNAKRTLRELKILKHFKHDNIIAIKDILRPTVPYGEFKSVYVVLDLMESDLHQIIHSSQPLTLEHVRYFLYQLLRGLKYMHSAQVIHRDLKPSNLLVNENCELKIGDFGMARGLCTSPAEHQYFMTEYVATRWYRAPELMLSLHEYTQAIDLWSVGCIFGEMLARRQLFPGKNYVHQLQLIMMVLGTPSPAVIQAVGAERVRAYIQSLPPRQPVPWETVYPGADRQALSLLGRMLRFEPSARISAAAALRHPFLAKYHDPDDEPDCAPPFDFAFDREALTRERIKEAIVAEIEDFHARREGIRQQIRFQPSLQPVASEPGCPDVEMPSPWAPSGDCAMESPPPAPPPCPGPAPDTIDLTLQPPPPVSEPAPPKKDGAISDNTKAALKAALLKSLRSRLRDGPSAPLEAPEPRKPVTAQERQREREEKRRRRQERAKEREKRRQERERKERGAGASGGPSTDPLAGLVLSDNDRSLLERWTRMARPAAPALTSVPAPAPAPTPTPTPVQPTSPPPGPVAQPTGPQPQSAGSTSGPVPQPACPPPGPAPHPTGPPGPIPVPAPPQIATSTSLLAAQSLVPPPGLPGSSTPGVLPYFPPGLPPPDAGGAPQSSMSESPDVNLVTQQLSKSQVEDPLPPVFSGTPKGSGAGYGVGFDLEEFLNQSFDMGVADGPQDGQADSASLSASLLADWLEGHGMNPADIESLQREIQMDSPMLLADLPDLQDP", "experiment": "Inhibition of ERK5 (unknown origin) by ADP-Glo kinase assay"}}, "note": "The source made the active and inactive calls. The rule behind the calls is not given here.", "data": [{"smiles": "COc1cc(N2CCN(CCCCC(=O)N[C@H](C(=O)N3C[C@H](O)C[C@H]3C(=O)N[C@@H](C)c3ccc(-c4scnc4C)cc3)C(C)(C)C)CC2)ccc1Nc1ncc2c(n1)N(C)c1ccccc1C(=O)N2C", "values": [{"measurement": "Activity", "setting": "[1]", "value": "Active"}]}, {"smiles": "COc1cc(N2CCN(CCCCCC(=O)N[C@H](C(=O)N3C[C@H](O)C[C@H]3C(=O)N[C@@H](C)c3ccc(-c4scnc4C)cc3)C(C)(C)C)CC2)ccc1Nc1ncc2c(n1)N(C)c1ccccc1C(=O)N2C", "values": [{"measurement": "Activity", "setting": "[1]", "value": "Active"}]}, {"smiles": "COc1cc(NC(=O)NCCCCNc2cccc3c2C(=O)N(C2CCC(=O)NC2=O)C3=O)ccc1Nc1ncc2c(n1)N(C)c1ccccc1C(=O)N2C", "note": "(centres undefined)", "values": [{"measurement": "Activity", "setting": "[1]", "value": "inactive"}]}, {"smiles": "COc1cc(N2CCN(CCCCCCCCCC(=O)N[C@H](C(=O)N3C[C@H](O)C[C@H]3C(=O)N[C@@H](C)c3ccc(-c4scnc4C)cc3)C(C)(C)C)CC2)ccc1Nc1ncc2c(n1)N(C)c1ccccc1C(=O)N2C", "values": [{"measurement": "Activity", "setting": "[1]", "value": "Active"}]}, {"smiles": "COc1cc(NC(=O)CCCCCn2cc(CCNc3cccc4c3C(=O)N(C3CCC(=O)NC3=O)C4=O)nn2)ccc1Nc1ncc2c(n1)N(C)c1ccccc1C(=O)N2C", "note": "(centres undefined)", "values": [{"measurement": "Activity", "setting": "[1]", "value": "inactive"}]}, {"smiles": "COc1cc(NC(=O)CNc2cccc3c2C(=O)N(C2CCC(=O)NC2=O)C3=O)ccc1Nc1ncc2c(n1)N(C)c1ccccc1C(=O)N2C", "note": "(centres undefined)", "values": [{"measurement": "Activity", "setting": "[1]", "value": "inactive"}]}, {"smiles": "COc1cc(N2CCN(C(=O)CCCCC#Cc3cccc4c3CN(C3CCC(=O)NC3=O)C4=O)CC2)ccc1Nc1ncc2c(n1)N(C)c1ccccc1C(=O)N2C", "note": "(centres undefined)", "values": [{"measurement": "Activity", "setting": "[1]", "value": "inactive"}]}, {"smiles": "COc1cc(NC(=O)NCCCCCNc2cccc3c2C(=O)N(C2CCC(=O)NC2=O)C3=O)ccc1Nc1ncc2c(n1)N(C)c1ccccc1C(=O)N2C", "note": "(centres undefined)", "values": [{"measurement": "Activity", "setting": "[1]", "value": "inactive"}]}, {"smiles": "COc1cc(N2CCN(CCOCC#Cc3cccc4c3CN(C3CCC(=O)NC3=O)C4=O)CC2)ccc1Nc1ncc2c(n1)N(C)c1ccccc1C(=O)N2C", "note": "(centres undefined)", "values": [{"measurement": "Activity", "setting": "[1]", "value": "Active"}]}, {"smiles": "COc1cc(N2CCC(OCCCCCC(=O)N[C@H](C(=O)N3C[C@H](O)C[C@H]3C(=O)N[C@@H](C)c3ccc(-c4scnc4C)cc3)C(C)(C)C)CC2)ccc1Nc1ncc2c(n1)N(C)c1ccccc1C(=O)N2C", "values": [{"measurement": "Activity", "setting": "[1]", "value": "Active"}]}, {"smiles": "COc1cc(NC(=O)NCCOCCOCCOCCNc2cccc3c2C(=O)N(C2CCC(=O)NC2=O)C3=O)ccc1Nc1ncc2c(n1)N(C)c1ccccc1C(=O)N2C", "note": "(centres undefined)", "values": [{"measurement": "Activity", "setting": "[1]", "value": "inactive"}]}, {"smiles": "COc1cc(N2CCN(CCCCCCCCC(=O)N[C@H](C(=O)N3C[C@H](O)C[C@H]3C(=O)N[C@@H](C)c3ccc(-c4scnc4C)cc3)C(C)(C)C)CC2)ccc1Nc1ncc2c(n1)N(C)c1ccccc1C(=O)N2C", "values": [{"measurement": "Activity", "setting": "[1]", "value": "Active"}]}, {"smiles": "COc1cc(NC(=O)NCCOCCOCCNc2cccc3c2C(=O)N(C2CCC(=O)NC2=O)C3=O)ccc1Nc1ncc2c(n1)N(C)c1ccccc1C(=O)N2C", "note": "(centres undefined)", "values": [{"measurement": "Activity", "setting": "[1]", "value": "inactive"}]}, {"smiles": "COc1cc(NC(=O)NCCCCCCNc2cccc3c2C(=O)N(C2CCC(=O)NC2=O)C3=O)ccc1Nc1ncc2c(n1)N(C)c1ccccc1C(=O)N2C", "note": "(centres undefined)", "values": [{"measurement": "Activity", "setting": "[1]", "value": "inactive"}]}, {"smiles": "COc1cc(NC(=O)CCCCCCCCCCNc2cccc3c2C(=O)N(C2CCC(=O)NC2=O)C3=O)ccc1Nc1ncc2c(n1)N(C)c1ccccc1C(=O)N2C", "note": "(centres undefined)", "values": [{"measurement": "Activity", "setting": "[1]", "value": "inactive"}]}, {"smiles": "COc1cc(C(=O)N2CCN(C(=O)CCCCC#Cc3cccc4c3CN(C3CCC(=O)NC3=O)C4=O)CC2)ccc1Nc1ncc2c(n1)N(C)c1ccccc1C(=O)N2C", "note": "(centres undefined)", "values": [{"measurement": "Activity", "setting": "[1]", "value": "inactive"}]}, {"smiles": "COc1cc(C(=O)N2CCN(CCCCCC(=O)N[C@H](C(=O)N3C[C@H](O)C[C@H]3C(=O)N[C@@H](C)c3ccc(-c4scnc4C)cc3)C(C)(C)C)CC2)ccc1Nc1ncc2c(n1)N(C)c1ccccc1C(=O)N2C", "values": [{"measurement": "Activity", "setting": "[1]", "value": "Active"}]}, {"smiles": "COc1cc(N2CCN(CCOCCOCCCN[C@H](C(=O)N3C[C@H](O)C[C@H]3C(=O)N[C@@H](C)c3ccc(-c4scnc4C)cc3)C(C)(C)C)CC2)ccc1Nc1ncc2c(n1)N(C)c1ccccc1C(=O)N2C", "values": [{"measurement": "Activity", "setting": "[1]", "value": "Active"}]}, {"smiles": "CCOc1cc(N2CCC(O)CC2)ccc1Nc1ncc2c(n1)N(C)c1ccccc1C(=O)N2C", "values": [{"measurement": "inhibition", "setting": "[2]", "value": "Active"}, {"measurement": "inhibition", "setting": "[3]", "value": "Active"}, {"measurement": "Activity", "setting": "[4]", "value": 44.5, "unit": "%"}]}, {"smiles": "COc1cc(NC(=O)NCCCNc2cccc3c2C(=O)N(C2CCC(=O)NC2=O)C3=O)ccc1Nc1ncc2c(n1)N(C)c1ccccc1C(=O)N2C", "note": "(centres undefined)", "values": [{"measurement": "Activity", "setting": "[1]", "value": "inactive"}]}, {"smiles": "CCOC(=O)CCCCCCN1CCN(c2ccc(Nc3ncc4c(n3)N(C)c3ccccc3C(=O)N4C)c(OC)c2)CC1", "values": [{"measurement": "IC50", "setting": "[5]", "value": 27.1, "unit": "nM"}]}, {"smiles": "COc1cc(N2CCN(CCOCCNc3cccc4c3C(=O)N(C3CCC(=O)NC3=O)C4=O)CC2)ccc1Nc1ncc2c(n1)N(C)c1ccccc1C(=O)N2C", "note": "(centres undefined)", "values": [{"measurement": "Activity", "setting": "[1]", "value": "Active"}]}, {"smiles": "COc1cc(N2CCNCC2)ccc1Nc1ncc2c(n1)N(C)c1ccccc1C(=O)N2C", "values": [{"measurement": "IC50", "setting": "[5]", "value": 10.1, "unit": "nM"}]}, {"smiles": "COc1cc(N2CCN(CCCCCCCC(=O)N[C@H](C(=O)N3C[C@H](O)C[C@H]3C(=O)N[C@@H](C)c3ccc(-c4scnc4C)cc3)C(C)(C)C)CC2)ccc1Nc1ncc2c(n1)N(C)c1ccccc1C(=O)N2C", "values": [{"measurement": "IC50", "setting": "[5]", "value": 67.1, "unit": "nM"}, {"measurement": "Activity", "setting": "[1]", "value": "Active"}]}, {"smiles": "COc1cc(N2CCN(CCCCCCCCCCC(=O)N[C@H](C(=O)N3C[C@H](O)C[C@H]3C(=O)N[C@@H](C)c3ccc(-c4scnc4C)cc3)C(C)(C)C)CC2)ccc1Nc1ncc2c(n1)N(C)c1ccccc1C(=O)N2C", "values": [{"measurement": "Activity", "setting": "[1]", "value": "Active"}]}, {"smiles": "COc1cc(NC(=O)NCCOCCNc2cccc3c2C(=O)N(C2CCC(=O)NC2=O)C3=O)ccc1Nc1ncc2c(n1)N(C)c1ccccc1C(=O)N2C", "note": "(centres undefined)", "values": [{"measurement": "Activity", "setting": "[1]", "value": "inactive"}]}]}
